A word on the IC50: it is the midpoint of a concentration-inhibition curve.

Seven compounds from BindingDB's records for patent US20250282798 (Medshine Discovery, 2025) can be followed below.

The target in this assay is Mitogen-activated protein kinase kinase kinase kinase 1 (Homo sapiens, UniProt Q92918). The assay can be described thus: Kinase Activity Assay. As to the method:
The compound was diluted 50-fold into the kinase reaction buffer, and the mixture was shaken on a shaker for 20 minutes. The kinase was prepared with the enzyme reaction buffer. 2 μL of kinase was added to each well of a reaction plate. 1 μL of the diluted compound in the buffer was added to each well. The plate was sealed with a sealing film, centrifuged at 1000 g for 30 seconds, and placed at room temperature for 10 minutes. The mixed solution of ATP/MBP was prepared with the enzyme reaction buffer. 2 μL of the mixed solution of ATP/MBP was added to the reaction plate. The plate was sealed with a sealing film, and centrifuged at 1000 g for 30 seconds. The mixture in the plate was reacted at room temperature for 60 minutes. […] The plate was incubated at 25° C. for 40 min. […] The plate was incubated at 25° C. for 40 min. The RLU (relative luminescence unit) signal was read with a BMG microplate reader, and the signal intensity was used to characterize the activity of the kinase.

Sequence of Mitogen-activated protein kinase kinase kinase kinase 1 (Q92918 whole entry): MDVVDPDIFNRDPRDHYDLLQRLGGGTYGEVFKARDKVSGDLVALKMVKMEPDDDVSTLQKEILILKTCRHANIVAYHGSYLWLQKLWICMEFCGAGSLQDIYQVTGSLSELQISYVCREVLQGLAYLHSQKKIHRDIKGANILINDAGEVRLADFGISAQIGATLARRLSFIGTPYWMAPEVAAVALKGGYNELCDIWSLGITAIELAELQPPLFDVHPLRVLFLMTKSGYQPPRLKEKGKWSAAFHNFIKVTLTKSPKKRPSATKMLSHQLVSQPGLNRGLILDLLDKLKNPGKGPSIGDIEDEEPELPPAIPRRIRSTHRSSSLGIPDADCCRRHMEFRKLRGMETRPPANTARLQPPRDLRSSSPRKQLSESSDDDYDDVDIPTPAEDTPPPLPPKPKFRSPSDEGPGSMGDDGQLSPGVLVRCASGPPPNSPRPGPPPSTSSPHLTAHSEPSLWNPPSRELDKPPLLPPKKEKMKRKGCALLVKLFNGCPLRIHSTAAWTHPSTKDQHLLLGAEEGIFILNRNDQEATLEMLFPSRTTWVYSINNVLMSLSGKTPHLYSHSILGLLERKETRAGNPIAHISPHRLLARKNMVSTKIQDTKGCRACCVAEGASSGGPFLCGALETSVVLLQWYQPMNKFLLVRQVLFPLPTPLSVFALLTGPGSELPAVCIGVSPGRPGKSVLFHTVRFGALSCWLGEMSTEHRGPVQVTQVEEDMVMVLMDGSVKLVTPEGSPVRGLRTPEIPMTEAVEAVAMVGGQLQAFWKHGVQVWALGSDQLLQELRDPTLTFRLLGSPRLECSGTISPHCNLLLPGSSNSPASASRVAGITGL

Compound `CN1Cc2nc(Nc3ccc(-c4cnc5cc(F)ccn45)c4c3C(=O)NC4)ccc2N2CCOCC2C1` (configuration not stated) [US20250282798, Compound 16] came in with an IC50 of 0.8 nM.

On to `COc1cccc(F)c1-c1ccc(Nc2ccc(N3CCOCC3)c(CN(C)C)n2)c2c1CNC2=O` [US20250282798, Compound 15], for which half-maximal inhibition (IC50) was put at 1.7 nM.

As for `O=C1NCc2c(-c3cnc4cc(F)ccn34)ccc(Nc3ccc4c(n3)CNC(=O)C3COCC43)c21` (configuration not stated) [US20250282798, Compound 18], it took 0.2 nM to reach half-maximal inhibition (IC50).

For `Cn1ccc2c(-c3ccc(Nc4ccc5c(n4)CNC(=O)C4COCC54)c4c3CNC4=O)ccnc21` (configuration not stated) [US20250282798, Compound 23], it took 0.02 nM to reach half-maximal inhibition (IC50).

Consider `CN1Cc2nc(Nc3ccc(-c4cnc5cc(F)ccn45)c4c3C(=O)NC4)ccc2C2COCC2C1` (configuration not stated) [US20250282798, Compound 17], for which the IC50 turned out to be 1.3 nM. Compared with the last compound, the IC50 is about 65-fold higher.

Compound `Cn1ccc2c(-c3ncc(Nc4ccc5c(n4)OC[C@H]4COCCN54)c4c3CNC4=O)ccnc21` [US20250282798, Compound 20] registered an IC50 of 0.3 nM. This IC50 is about 4.3-fold lower than that of the compound before.

On to `CN1Cc2nc(Nc3ccc(-c4ccnc5c4ccn5C)c4c3C(=O)NC4)ccc2N2CCOCC2C1` (configuration not stated) [US20250282798, Compound 25], for which the IC50 stood at 0.2 nM.
